Experimental data published in ChEMBL document CHEMBL3994622, “Design and synthesis of new RAF kinase-inhibiting antiproliferative quinoline derivatives. Part 2: Diarylurea derivatives” (Eur J Med Chem, 2017).

Experiments:
[1] = system: BT-549; experiment: Growth inhibition of human BT549 cells incubated for 48 hrs by sulforhodamine B assay; assay type: functional; settings: BT-549, 48 h
[2] = system: DU-145; experiment: Growth inhibition of human DU145 cells incubated for 48 hrs by sulforhodamine B assay; assay type: functional; settings: DU-145, 48 h
[3] = system: SNB-75; experiment: Growth inhibition of human SNB75 cells incubated for 48 hrs by sulforhodamine B assay; assay type: functional; settings: SNB-75, 48 h
[4] = system: HCT-116; experiment: Growth inhibition of human HCT116 cells incubated for 48 hrs by sulforhodamine B assay; assay type: functional; settings: HCT-116, 48 h
[5] = system: SF-295; experiment: Growth inhibition of human SF295 cells incubated for 48 hrs by sulforhodamine B assay; assay type: functional; settings: SF-295, 48 h
[6] = system: HL-60(TB); experiment: Growth inhibition of human HL-60(TB) cells incubated for 48 hrs by sulforhodamine B assay; assay type: functional; settings: HL-60, 48 h
[7] = system: OVCAR-3; experiment: Growth inhibition of human OVCAR3 cells incubated for 48 hrs by sulforhodamine B assay; assay type: functional; settings: OVCAR-3, 48 h
[8] = system: RXF 393; experiment: Growth inhibition of human RXF393 cells incubated for 48 hrs by sulforhodamine B assay; assay type: functional; settings: RXF 393, 48 h
[9] = system: 786-0; experiment: Growth inhibition of human 786-0 cells incubated for 48 hrs by sulforhodamine B assay; assay type: functional; settings: 786-0, 48 h
[10] = system: PC-3; experiment: Growth inhibition of human PC3 cells incubated for 48 hrs by sulforhodamine B assay; assay type: functional; settings: PC-3, 48 h
[11] = system: LOX IMVI; experiment: Growth inhibition of human LOXIMVI cells incubated for 48 hrs by sulforhodamine B assay; assay type: functional
[12] = system: HOP-92; experiment: Growth inhibition of human HOP92 cells incubated for 48 hrs by sulforhodamine B assay; assay type: functional; settings: HOP-92, 48 h
[13] = system: SR; experiment: Growth inhibition of human SR cells incubated for 48 hrs by sulforhodamine B assay; assay type: functional
[14] = system: U-251; experiment: Growth inhibition of human U251 cells incubated for 48 hrs by sulforhodamine B assay; assay type: functional; settings: U-251, 48 h
[15] = system: T47D; experiment: Growth inhibition of human T47D cells incubated for 48 hrs by sulforhodamine B assay; assay type: functional
[16] = system: TK-10; experiment: Growth inhibition of human TK10 cells incubated for 48 hrs by sulforhodamine B assay; assay type: functional; settings: TK-10, 48 h
[17] = system: HT-29; experiment: Growth inhibition of human HT-29 cells incubated for 48 hrs by sulforhodamine B assay; assay type: functional; settings: HT-29, 48 h
[18] = system: MDA-MB-231; experiment: Growth inhibition of human MDA-MB-231 cells incubated for 48 hrs by sulforhodamine B assay; assay type: functional; settings: MDA-MB-231, 48 h
[19] = system: CCRF-CEM; experiment: Growth inhibition of human CCRF-CEM cells incubated for 48 hrs by sulforhodamine B assay; assay type: functional
[20] = system: UO-31; experiment: Growth inhibition of human UO31 cells incubated for 48 hrs by sulforhodamine B assay; assay type: functional; settings: UO-31, 48 h
[21] = system: K562; experiment: Growth inhibition of human K562 cells incubated for 48 hrs by sulforhodamine B assay; assay type: functional; settings: K562, 48 h
[22] = system: SW-620; experiment: Growth inhibition of human SW620 cells incubated for 48 hrs by sulforhodamine B assay; assay type: functional; settings: SW-620, 48 h
[23] = system: UACC-257; experiment: Growth inhibition of human UACC257 cells incubated for 48 hrs by sulforhodamine B assay; assay type: functional; settings: UACC-257, 48 h
[24] = system: A549; experiment: Growth inhibition of human A549/ATCC cells incubated for 48 hrs by sulforhodamine B assay; assay type: functional; settings: A549, 48 h
[25] = target: RAF proto-oncogene serine/threonine-protein kinase (Homo sapiens, UniProt P04049); experiment: Inhibition of human c-RAF at 10 uM using MEK1 as substrate in presence of [33P]ATP by Hotspot assay relative to control
[26] = system: SF-539; experiment: Growth inhibition of human SF539 cells incubated for 48 hrs by sulforhodamine B assay; assay type: functional; settings: SF-539, 48 h
[27] = system: KM12; experiment: Growth inhibition of human KM12 cells incubated for 48 hrs by sulforhodamine B assay; assay type: functional; settings: KM12, 48 h
[28] = system: NCI-H23; experiment: Growth inhibition of human NCI-H23 cells incubated for 48 hrs by sulforhodamine B assay; assay type: functional; settings: NCI-H23, 48 h
[29] = system: RPMI-8226; experiment: Growth inhibition of human RPMI8226 cells incubated for 48 hrs by sulforhodamine B assay; assay type: functional; settings: RPMI-8226, 48 h
[30] = system: ACHN; experiment: Growth inhibition of human ACHN cells incubated for 48 hrs by sulforhodamine B assay; assay type: functional
[31] = system: OVCAR-8; experiment: Growth inhibition of human OVCAR8 cells incubated for 48 hrs by sulforhodamine B assay; assay type: functional; settings: OVCAR-8, 48 h
[32] = system: SK-MEL-28; experiment: Growth inhibition of human SK-MEL-28 cells incubated for 48 hrs by sulforhodamine B assay; assay type: functional; settings: SK-MEL-28, 48 h
[33] = read-out: LC50 (the source's name)

RAF proto-oncogene serine/threonine-protein kinase, sequence (P04049 whole entry): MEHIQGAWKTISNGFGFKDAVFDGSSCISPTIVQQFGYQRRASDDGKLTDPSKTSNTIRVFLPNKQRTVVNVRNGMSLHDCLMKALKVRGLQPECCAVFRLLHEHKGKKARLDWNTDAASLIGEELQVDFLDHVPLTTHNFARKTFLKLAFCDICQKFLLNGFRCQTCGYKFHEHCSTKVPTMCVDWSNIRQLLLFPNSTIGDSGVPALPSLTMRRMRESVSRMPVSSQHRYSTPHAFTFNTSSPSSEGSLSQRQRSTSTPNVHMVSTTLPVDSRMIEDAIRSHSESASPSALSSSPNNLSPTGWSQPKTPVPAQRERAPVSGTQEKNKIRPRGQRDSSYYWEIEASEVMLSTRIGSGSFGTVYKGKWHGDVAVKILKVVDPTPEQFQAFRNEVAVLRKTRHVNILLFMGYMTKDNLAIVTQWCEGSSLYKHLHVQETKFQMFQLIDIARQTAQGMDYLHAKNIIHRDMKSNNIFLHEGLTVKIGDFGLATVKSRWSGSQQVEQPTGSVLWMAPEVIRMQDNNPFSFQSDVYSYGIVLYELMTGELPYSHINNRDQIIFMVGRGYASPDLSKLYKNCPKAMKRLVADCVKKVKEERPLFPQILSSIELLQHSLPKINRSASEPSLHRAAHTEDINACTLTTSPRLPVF

COc1cc2cc(Oc3ccc(NC(=O)Nc4cc(C(F)(F)F)cc(C(F)(F)F)c4)cc3)c(C)nc2cc1OC
GI50 [1]: 1.75 µM
TGI [1]: 3.76 µM
CC50 [1, 33]: 30.1 µM
GI50 [2]: 2.38 µM
TGI [2]: 9.36 µM
CC50 [2, 33]: 8.06 µM
GI50 [3]: 1.73 µM
TGI [3]: 5.05 µM
CC50 [3, 33]: > 100 µM
GI50 [4]: 0.589 to 0.59 µM
LC50 (50% lethal concentration) [4]: 5.16 µM
TGI [4]: 1.92 µM
GI50 [5]: 0.48 to 0.481 µM
TGI [5]: 1.94 µM
CC50 [5, 33]: 5.71 µM
GI50 [6]: 1.58 µM
TGI [6]: 4.37 µM
CC50 [6, 33]: 41.8 µM
GI50 [7]: 0.488 to 0.49 µM
TGI [7]: 1.7 µM
CC50 [7, 33]: 4.52 µM
GI50 [8]: 2.06 µM
TGI [8]: 4.78 µM
CC50 [8, 33]: 5.94 µM
GI50 [9]: 1.61 µM
TGI [9]: 3.09 µM
CC50 [9, 33]: 13.8 µM
GI50 [10]: 0.42 µM
TGI [10]: 2.48 µM
CC50 [10, 33]: 32.4 µM
GI50 [11]: 1.44 µM
TGI [11]: 2.96 µM
CC50 [11, 33]: 6.12 µM
GI50 [12]: 1.12 µM
LC50 [12]: 40.9 µM
TGI [12]: 3.9 µM
GI50 [13]: 1.62 µM
TGI [13]: 5.97 µM
CC50 [13, 33]: > 100 µM
GI50 [14]: 1.08 µM
TGI [14]: 2.47 µM
CC50 [14, 33]: 5.61 µM
GI50 [15]: 1.48 µM
TGI [15]: 5.67 µM
CC50 [15, 33]: 29.1 µM
GI50 [16]: 2.32 µM
TGI [16]: 9.18 µM
CC50 [16, 33]: 5.99 µM
GI50 [17]: 1.52 µM
TGI [17]: 3.46 µM
CC50 [17, 33]: 7.91 µM
GI50 [18]: 1.08 µM
TGI [18]: 2.49 µM
CC50 [18, 33]: > 100 µM
GI50 [19]: 0.64 µM
TGI [19]: 3.47 µM
CC50 [19, 33]: > 100 µM
GI50 [20]: 0.266 to 0.27 µM
TGI [20]: 1.65 µM
CC50 [20, 33]: 35.1 µM
GI50 [21]: 0.57 µM
LC50 (concentration killing 50% of cells) [21]: 17 µM
TGI [21]: 2.53 µM
GI50 [22]: 1.94 µM
LC50 [22]: 39.3 µM
TGI [22]: 5.71 µM
GI50 [23]: 2.48 µM
TGI [23]: 5.49 µM
CC50 [23, 33]: 20 µM
GI50 [24]: 1.42 µM
TGI [24]: 4.75 µM
CC50 [24, 33]: 22.5 µM
inhibition [25]: 92.4%
GI50 [26]: 1.45 µM
TGI [26]: 3.21 µM
CC50 [26, 33]: 7.11 µM
GI50 [27]: 0.918 to 0.92 µM
TGI [27]: 2.46 µM
CC50 [27, 33]: 6.27 µM
GI50 [28]: 0.639 to 0.64 µM
TGI [28]: 3.55 µM
CC50 [28, 33]: 32.3 µM
GI50 [29]: 0.41 to 0.46 µM
LC50 (lethal concentration, 50% cell kill) [29]: > 100 µM
TGI [29]: 5.51 µM
GI50 [30]: 0.39 µM
TGI [30]: 1.69 µM
CC50 [30, 33]: 51.6 µM
GI50 [31]: 1.63 µM
TGI [31]: 4.22 µM
CC50 [31, 33]: > 100 µM
GI50 [32]: 1.19 µM
TGI [32]: 3.09 µM
CC50 [32, 33]: 8.03 µM
